Assay results reported in patent publication US20190211044A1, “Adjuvant Chemicals that Prevent Drug Tolerance and Persister Formation by Bacteria” (LifeUnit Inc., priority 2018, published 2019).

Columns and labels:
[1] = system: PA PAO1 biofilm; test: Inhibition of PA PAO1 biofilm (FIG. 1); type: cell-based, Pseudomonas aeruginosa; conditions: compounds at 60 μM
[2] = system: PAO1 in residual biofilm; test: cdG in PAO1 in residual biofilm after dispersal, by LC-MS (Example 4); type: cell-based, Pseudomonas aeruginosa; conditions: PAO1 residual biofilm dispersed by agent, versus original native or abx-promoted biofilm
Protocol: PAO1 in residual biofilm dispersed by 3,5-[…] and 3,5-[…] was tested by Liquid Chromatography-Mass Spectrometry (LC-MS).

[3] = system: PAO1 in residual biofilm; test: cdG in PAO1 in residual biofilm after dispersal, by reporter strains, GFP/CFP fluorescence (Example 5); type: cell-based, Pseudomonas aeruginosa; conditions: 40 μM for native and 85 μM for abx-promoted biofilm, dispersed 5-h at 37° C., M9 medium
[4] = system: phosphodiesterase activity in biofilms of PA strains; type: cell-based; conditions: bacteria incubated with agent 24-h to form biofilm, lysed, bis-NPP
[5] = system: PAO1 in residual biofilm; test: cdG by reporter strains versus naturally dispersed PAO1 (Example 7); type: cell-based, Pseudomonas aeruginosa; conditions: PAO1 in residual biofilm dispersed by agent
[6] = system: abx-promoted swarming P. aeruginosa; test: c-di-GMP in abx-promoted swarming P. aeruginosa, by LC-MS (Example 8); type: cell-based
Protocol: 3,5-DiMeDβM and 3,5-DiMeDβC was tested by Liquid Chromatography-Mass Spectrometry (LC-MS) to show the effect on c-di-GMP on abx-promoted swarming P. aeruginosa.

Substance | biofilm inhibition [1] [%] | cdG level in residual biofilm (LC-MS) [2] | cdG level in residual biofilm (reporter strains, GFP/CFP) [3] | phosphodiesterase activity [4] | cdG level versus naturally dispersed PAO1 (reporter strains) [5] | c-di-GMP on abx-promoted swarming P. aeruginosa (LC-MS) [6]
3,5-dimethyl-C12-βM [3,5-DiMeDβM] | > 95 | lower cdG than in original native or abx-promoted biofilm | lower cdG than in original native or abx-promoted biofilm | increase phosphodiesterase activity | lower cdG than in naturally dispersed PAO1 | increases c-di-GMP
3,5-dimethyl-C12-βC [3,5-DiMeDβC] |  | lower cdG than in original native or abx-promoted biofilm | lower cdG than in original native or abx-promoted biofilm | increase phosphodiesterase activity | lower cdG than in naturally dispersed PAO1 | increases c-di-GMP
